Experimental data: US9290487B2, “Pharmaceutical composition for treating diabetes” (Ajinomoto Co., Inc., priority 2011, dated 2016)
Read-outs that look alike come from different tables or passages of the source.

What was measured:
[1] = target: human GYS1 (glycogen synthase) (Homo sapiens (Human), UniProt P13807); assay: Measurement of glycogen synthase activity (coupled pyruvate kinase/lactate dehydrogenase assay, absorbance at 340 nm); assay type: biochemical; details: concentration inducing relative activity of 50% (100% = Ex. 1 of WO/2011/058154 at 10 μM)
Description: A human GYS1 expression plasmid (pCDNA3.1(+)-hGYS1) was constructed by the following method. Using a human skeletal muscle cDNA of Human MTC Panel I (Takara Bio Inc., 636742) as a template, a human GYS1 gene was amplified by a PCR method using cloning primers (Forward Primer: ATGCCTTTAAACCGCAC (SEQ ID NO: 1), Reverse Primer: TTAGTTACGCTCCTCGC (SEQ ID NO: 2)). Using the amplified human GYS1 sequence as a template, a restriction enzyme sequence was added by a PCR method using sub-cloning primers (Forward Primer: […] (SEQ ID NO: 3), Reverse Primer: […] (SEQ ID NO: 4)). Then, the human GYS1 gene was introduced between a Xho I site and a Xba I site of pCDNA3.1(+) (Invitrogen Corporation, V790-20).
Glycogen synthase was prepared by the following method according to the published article (THE JOURNAL OF BIOLOGICAL CHEMISTRY Vol. 269, No. 41, 25534-25542, 1994). Human kidney-derived HEK293T cells were seeded in a dish (Thermo Fisher Scientific Inc., 168381) using a 10% FBS-containing DMEM (Nacalai Tesque, Inc., 0845874) medium, and cultured overnight. Then, using Lipofectamine LTX (Invitrogen Corporation, 15338-100), the human GYS1 expression vector was transfected according to the attached manual. After culturing under conditions of 37° C. and 5% CO2 for 2 days, the resultant was dissolved in a lysis buffer (50 mM Tris-HCl (pH 8.0), 10 mM EDTA, 2 mM EGTA, 100 mM NaF, 1 mM PMSF, 1 mM DTT, 1× Complete (Roche Diagnostics K. K., 1873580)), homogenized, and then centrifuged at 16000×g at 4° C. for 15 minutes. To the precipitated fraction, a lysis buffer was added. Re-dissolved fractions were used as glycogen synthase for evaluation.
The glycogen synthase activity was measured by the following method. To a polystyrene 96-well plate, a solution containing 30 mM glycylglycine (pH 7.3), 40 mM KCl, 20 mM MgCl2, 9.2% DMSO containing one of the test compounds at various concentrations, and 10 mM glucose-6-phosphate (Sigma-Aldrich Corporation, G7879) was added by 12 μL/well.
Next, a substrate solution containing 30 mM glycylglycine (pH 7.3), 4.3 mg/mL of glycogen (Sigma-Aldrich Corporation, G8876), 21.6 mM UDP-glucose (Sigma-Aldrich Corporation, U4625), 21.6 mM phosphoenolpyruvic acid (Sigma-Aldrich Corporation, P0564), and 4.05 mM NADH (Sigma-Aldrich Corporation, N8129) was added by 18 μL/well.
Further, an enzyme solution containing 50 mM Tris-HCl (pH 8.0), 27 mM DTT (Nacalai Tesque, Inc., 14128-04), 0.2 mg/mL of bovine serum albumin, 0.17 mg/mL of the glycogen synthase, 1.5 μL of a pyruvate kinase/lactate dehydrogenase solution (Sigma-Aldrich Corporation, P0294) was added by 18 μL/well to prepare a reaction solution. After the reaction solution was incubated (at 30° C. for 25 minutes for Examples 1 to 10, at 37° C. for 20 minutes for Examples 11 to 75), the absorbance at 340 nm was measured using Benchmark Plus (Bio-Rad Laboratories, Inc.).
The activities of the test compounds were calculated by the following method. The change in the absorbance (ΔA340) was calculated by subtracting the absorbance at 340 nm of the reaction solution containing the compound and DMSO from the absorbance at 340 nm of a reaction solution not containing the compound but containing only DMSO. The ΔA340 of the reaction solution containing the compound of Example 1 in WO/2011/058154 at the final concentration of 10 μM was taken as 100% to calculate the relative activity (%) of the test compounds at various concentrations. EC50 representing the concentration of the compound which induces an increase in the relative activity to 50% was calculated using XLfit (idbs).

PPAR-α = PPAR-α (Homo sapiens (Human), UniProt Q07869); assay: Measurement of PPAR-α activity (GAL4 luciferase reporter assay in CV-1 cells); assay type: cell-based; details: 100(A/B), B = compound in WO/2011/058154 at 100 μM, read-out: PPARα relative fold induction (%)
Description: The PPAR-α activity was measured according to the published article (THE JOURNAL OF BIOLOGICAL CHEMISTRY Vol. 270, No. 22, 12953-12956, 1995).
Plasmids used for the PPAR-α activity measurement were constructed as follows. A luciferase expression plasmid (UASx5-TK-Luc) used was obtained by introducing a sequence, in which five yeast GAL4-binding sequences are linked in tandem, upstream of a thymidine kinase promoter of pTAL-Luc (Takara Bio Inc., 6252-1). A PPAR-α receptor expression plasmid (hGR-GAL4-hPPARα) used was obtained by introducing a human GR N-terminal region (1-76 aa), a yeast GAL4 DNA-binding region (1-147 aa), and a PPARα ligand-binding region (167-468 aa) between a Not I site and a Sal I site of pExchange-1 Core Vector (Invitrogen Corporation, 211176).
A reporter assay was conducted by the following method using Cercopithecus aethiops kidney-derived CV-1 cells. The CV-1 cells were seeded in a 96-well plate (Thermo Fisher Scientific Inc., 4938) at 2×10^4 cells/well using a 10% FBS-containing DMEM (Nacalai Tesque, Inc., 0845874) medium. After culturing under conditions of 37° C. and 5% CO2 for 2 hours, the plasmids were transfected. Lipofectamine LTX (Invitrogen Corporation, 15338-100) was used for the transfection according to the attached manual. The plasmid solution was prepared by adding a mixture solution of the luciferase expression plasmid and the PPAR-α receptor expression plasmid to OPTI-MEM I (Invitrogen Corporation, 11058-021). After the transfection was conducted, the test compound was added, and cultured at 37° C. in the presence of 5% CO2 for 18 to 20 hours. After the culturing was completed, the luciferase activity was measured with Luminescensor JNR (ATTO) using Bright-Glo (Promega Corporation, E2620).
The fold induction of PPAR-α by the test compounds was calculated by the following method. For the compounds of Examples 1, 4, 5, 7, and 9, PPAR-α relative fold induction (%) was defined as 100 (A/B), where A represents the maximum value of PPAR-α activities with the test compound at 0.3 μM, 1 μM, 3 μM, 10 μM, 30 μM, and 100 μM, and B represents the PPAR-α activity with the compound in WO/2011/058154 at 100 μM. For the compounds of Examples 11, 15, 19, 22, 26, and 32, PPAR-α relative fold induction (%) was defined as 100 (A/B), where A represents the maximum value of PPAR-α activities with the test compound at 3 μM, 10 μM, 30 μM, and 100 μM, and B represents the PPAR-α activity with the compound in WO/2011/058154 at 100 μM.

[2] = incubation at 30° C. for 25 minutes (Examples 1 to 10)
[3] = A = maximum activity at 0.3, 1, 3, 10, 30 and 100 μM
[4] = incubation at 37° C. for 20 minutes (Examples 11 to 75)
[5] = A = maximum activity at 3, 10, 30 and 100 μM
[6] = test concentrations not stated for these examples

human GYS1 (glycogen synthase), sequence (P13807 whole entry): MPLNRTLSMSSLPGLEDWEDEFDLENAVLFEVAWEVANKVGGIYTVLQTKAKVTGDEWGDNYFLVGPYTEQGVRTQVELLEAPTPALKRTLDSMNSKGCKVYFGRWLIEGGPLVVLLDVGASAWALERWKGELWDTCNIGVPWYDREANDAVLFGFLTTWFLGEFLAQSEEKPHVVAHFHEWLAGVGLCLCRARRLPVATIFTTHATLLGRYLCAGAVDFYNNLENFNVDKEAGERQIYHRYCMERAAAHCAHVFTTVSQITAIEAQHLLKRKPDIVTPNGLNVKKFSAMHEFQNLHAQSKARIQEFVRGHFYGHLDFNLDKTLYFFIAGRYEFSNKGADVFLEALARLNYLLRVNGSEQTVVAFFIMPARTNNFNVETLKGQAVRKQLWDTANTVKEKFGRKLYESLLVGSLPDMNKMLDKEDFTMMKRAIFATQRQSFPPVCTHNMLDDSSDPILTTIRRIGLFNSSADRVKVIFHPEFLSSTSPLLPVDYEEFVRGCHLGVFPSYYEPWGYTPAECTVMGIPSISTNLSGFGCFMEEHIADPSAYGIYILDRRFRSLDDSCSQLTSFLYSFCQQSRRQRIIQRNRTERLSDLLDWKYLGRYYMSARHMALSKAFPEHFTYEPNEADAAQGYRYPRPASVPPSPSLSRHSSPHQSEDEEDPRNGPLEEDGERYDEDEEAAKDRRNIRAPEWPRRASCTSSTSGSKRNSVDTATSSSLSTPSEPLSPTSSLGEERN
PPAR-α, sequence (Q07869 167-468): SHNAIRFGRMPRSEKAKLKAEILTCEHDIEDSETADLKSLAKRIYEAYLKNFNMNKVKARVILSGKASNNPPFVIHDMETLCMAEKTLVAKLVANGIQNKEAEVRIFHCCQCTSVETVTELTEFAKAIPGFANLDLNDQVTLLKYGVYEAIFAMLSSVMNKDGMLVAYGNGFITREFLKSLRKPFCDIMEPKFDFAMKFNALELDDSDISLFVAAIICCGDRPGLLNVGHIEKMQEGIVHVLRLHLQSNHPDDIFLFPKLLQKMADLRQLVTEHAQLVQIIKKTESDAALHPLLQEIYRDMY

SMILES | EC50 [1, 2] | Emax (PPAR-α; [3]) | EC50 [1, 4] | Emax (PPAR-α; [5]) | Emax (PPAR-α; [6])
O=C(O)[C@@H]1CCCN1C(=O)c1cccc(COc2ccc(-c3cccc4c3OCC=C4)cc2)c1 [compound of Ex. 9] | 320 nM | 11% | – | – | –
O=C(O)[C@@H]1CCCN1C(=O)c1cccc(COc2ccc(-c3cc(F)c(F)c4c(CO)coc34)cc2)c1 [compound of Ex. 56, 1-[3-({4-[4,5-difluoro-3-(hydroxymethyl)-1-benzofuran-7-yl]phenoxy}methyl)benzoyl]-L-proline] | – | – | 44 nM | – | 6.4%
O=C(O)[C@@H]1CCCN1C(=O)c1cccc(COc2ccc(-c3cc(F)c(F)c4cc(CO)sc34)cc2)c1 [compound of Ex. 66, 1-[3-({4-[4,5-difluoro-2-(hydroxymethyl)-1-benzothien-7-yl]phenoxy}methyl)benzoyl]-L-proline] | – | – | 74 nM | – | 18%
CC(O)COc1cc(-c2ccc(OCc3cccc(C(=O)N4CCC[C@H]4C(=O)O)c3)cc2)cc(F)c1F (stereo partly drawn) [compound of Ex. 50, 1-[3-({[3′,4′-difluoro-5′-(2-hydroxypropoxy)biphenyl-4-yl]oxy}methyl)benzoyl]-L-proline] | – | – | 410 nM | – | 15%
CC(=O)COc1cc(-c2ccc(OCc3cccc(C(=O)N4CCC[C@H]4C(=O)O)c3)cc2)cc(F)c1F [compound of Ex. 49, 1-[3-({[3′,4′-difluoro-5′-(2-oxopropoxy)biphenyl-4-yl]oxy}methyl)benzoyl]-L-proline] | – | – | 220 nM | – | 17%
N#CCc1cc(F)c(F)cc1-c1ccc(OCc2cccc(C(=O)N3CCC[C@H]3C(=O)O)c2)cc1 [compound of Ex. 61, 1-[3-({[2′-(cyanomethyl)-4′,5′-difluorobiphenyl-4-yl]oxy}methyl)benzoyl]-L-proline] | – | – | 790 nM | – | 10%
O=Cc1cc2c(F)c(F)cc(-c3ccc(OCc4cccc(C(=O)N5CCC[C@H]5C(=O)O)c4)cc3)c2s1 [compound of Ex. 65, 1-(3-{[4-(4,5-difluoro-2-formyl-1-benzothien-7-yl)phenoxy]methyl}benzoyl)-L-proline] | – | – | 300 nM | – | 11%
O=C(O)[C@@H]1CCCN1C(=O)c1cccc(COc2ccc(-c3cc(F)c(F)cc3SCCO)cc2)c1 [compound of Ex. 69, 1-{3-[({4′,5′-difluoro-2′-[(2-hydroxyethyl)thio]biphenyl-4-yl}oxy)methyl]benzoyl}-L-proline] | – | – | 130 nM | – | 8.6%
CC(=O)CSc1cc(F)c(F)cc1-c1ccc(OCc2cccc(C(=O)N3CCC[C@H]3C(=O)O)c2)cc1 [compound of Ex. 51, 1-{3-[({4′,5′-difluoro-2′-[(2-oxopropyl)thio]biphenyl-4-yl}oxy)methyl]benzoyl}-L-proline] | – | – | 83 nM | – | 15%
O=C(O)[C@@H]1CCCN1C(=O)c1cccc(COc2ccc(-c3cc(F)cc4c3OCC=C4)cc2)c1 [compound of Ex. 11] | – | – | – | 18% | –

Continued, values first:

EC50 [1, 2] | Emax (PPAR-α; [3]) | EC50 [1, 4] | Emax (PPAR-α; [5]) | Emax (PPAR-α; [6]) | SMILES
– | – | 22 nM | 20% | – | O=C(O)[C@@H]1CCCN1C(=O)c1cccc(COc2ccc(-c3cc(F)c(F)c4ccoc34)cc2)c1 [compound of Ex. 15, 1-(3-{[4-(4,5-difluoro-1-benzofuran-7-yl)phenoxy]methyl}benzoyl)-L-proline]
– | – | 61 nM | – | 18% | O=C(O)[C@@H]1CCCN1C(=O)c1cccc(COc2ccc(-c3cc(F)c(F)cc3/C=N/O)cc2)c1 [compound of Ex. 52, 1-{3-[({4′,5′-difluoro-2′-[(hydroxyimino)methyl]biphenyl-4-yl}oxy)methyl]benzoyl}-L-proline]
260 nM | 17% | – | – | – | O=C(O)[C@@H]1CCCN1C(=O)c1cccc(COc2ccc(-c3cccc4ccoc34)cc2)c1 [compound of Ex. 7]
– | – | 70 nM | – | 11% | O=Cc1cc(F)c(F)cc1-c1ccc(OCc2cccc(C(=O)N3CCC[C@H]3C(=O)O)c2)cc1 [compound of Ex. 43, 1-(3-{[(4′,5′-difluoro-2′-formylbiphenyl-4-yl)oxy]methyl}benzoyl)-L-proline]
– | – | 200 nM | – | 7.9% | O=C(O)[C@@H]1CCCN1C(=O)c1cccc(COc2ccc(-c3cc(F)c(F)c4cc(CO)oc34)cc2)c1 [compound of Ex. 70, 1-[3-({4-[4,5-difluoro-2-(hydroxymethyl)-1-benzofuran-7-yl]phenoxy}methyl)benzoyl]-L-proline]
– | – | 64 nM | – | – | O=C(O)[C@@H]1CCCN1C(=O)c1cccc(COc2ccc(-c3c(F)cc(F)c4ccoc34)cc2)c1 [compound of Ex. 20, 1-(3-{[4-(4,6-difluoro-1-benzofuran-7-yl)phenoxy]methyl}benzoyl)-L-proline]
– | – | 35 nM | – | – | O=C(O)[C@@H]1CCCN1C(=O)c1cccc(COc2ccc(-c3cc4ccoc4c(F)c3F)cc2)c1 [compound of Ex. 16, 1-(3-{[4-(6,7-difluoro-1-benzofuran-5-yl)phenoxy]methyl}benzoyl)-L-proline]
